The results in this text go back to PMC10854894, “A New Benzo[6,7]oxepino[3,2-b] Pyridine Derivative Induces Apoptosis in Canine Mammary Cancer Cell Lines” (Animals : an Open Access Journal from MDPI, 2024).

Structures are written as SMILES.

Common to all, as to format: cell-based, canine
Test [1] concerns CMGT071020 cells. Put plainly: Immunohistochemistry of vimentin and cytokeratin, Allred score. The settings on record: CMGT071020, 0-200 µM, 48 h, treatment vs control. As to the method: The cells were cultured in a T-25 cell culture flask (SPL life science, Gyeonggi-do, Republic of Korea) at a density of 2 × 10^5 cells/well and allowed to incubate for 24 h until they reached 60–70% confluence. They were subsequently treated with MPOBA at varying concentrations from 0 to 200 µM for 48 h. After treatment, cells were harvested using TrypLE and subjected to centrifugation at 1200 rpm for 5 min to obtain cell pellets. Then, the supernatant was replaced with 10% formalin, and the cell pellets were fixed overnight. The fixed cell pellets were embedded in paraffin blocks and sectioned with a thickness of 3 μm. These slide sections were then subjected to the deparaffinization and rehydration processes. For antigen retrieval, a heat-induced method was adopted, utilizing a vegetable steamer in a citrate buffer (pH = 6) at 90–100 °C for 45 min, followed by a cooling period of 30 min. After these preparatory steps, slides were mounted on cover plates within a Sequenza slide rack (Thermo Scientific, Waltham, MA, USA), void of air bubbles, and filled with Tris-buffered saline (TBS) (pH = 7.6). The immunohistochemical detection employed a Novolink™ Polymer Detection Kit (Leica Biosystems, Newcastle, UK) according to the manufacturer’s instructions. This began with the inhibition of endogenous peroxidase activity with a 150 μL peroxidase block at room temperature for 5 min, followed by washing with TBS three times for 3 min each. Subsequently, a 150 μL protein block was applied, incubated for 5 min, and washed three times with TBS for 3 min. Primary antibodies, including a vimentin (VT) mouse anti-human monoclonal antibody (Clone V9, ready-to-use kit, Leica Biosystems, Newcastle, UK) and a multi-cytokeratin (CK) mouse antibody (Clone AE1/AE3, ready-to-use kit, Leica Biosystems, Newcastle, UK), were incubated at 37 °C for 1 h. […]
A quantitative evaluation of the stained slides was performed utilizing the Allred scoring method and QuPath bioimaging software version 0.4.4 [48] to mitigate potential biases. […] The positive cells were systematically detected using the “positive cell detection” command in the analyze menu. The Allred score was calculated according to the quantity of marked cells and the intensity of the staining, as shown in Table S1. […] The scores and criteria used to quantify the labeled cells were 0, no labeling; 1, labeling in <1% of cells; 2, labeling in 1–10% of cells; 3, labeling in 11–33% of cells; 4, labeling in 34–66% of cells; and 5, labeling in 67–100% of cells. […] The staining intensity was determined visually. The sum of these criteria for each sample determined the final score.

Test [2] has as its system CMGT071020 cells. Put plainly: Morphological analysis, phase-contrast microscopy. The following applies: CMGT071020, 50, 100 or 200 µM, 48 h. As to the method: (§1) To investigate the morphological changes of the two CMC cell lines during the treatment with MPOBA, they were cultured in a 6-well plate at a density of 2 × 10^5 cells/well and allowed to incubate for 24 h until they reached 70–80% confluence. They were subsequently treated with MPOBA at varying concentrations from 0 to 200 µM for 48 h. Images of the cells were captured using a phase-contrast inverted microscope (Nikon, Tokyo, Japan) at 40× magnification.

In the next test the test system is REM134 cells. As to the kind of experiment: Morphological analysis, phase-contrast microscopy. The settings on record: REM134, 50, 100 or 200 µM, 48 h. On the procedure:
as §1

On to `Cc1ncccc1Oc1ccccc1C=O` [MPOBA, 2-((2-methylpyridin-3-yl)oxy)benzaldehyde], for which, in the test on CMGT071020 cells [1], the “cytokeratin (CK) expression, Allred score” value is on record as “no statistically significant difference” and the “vimentin (VT) expression, Allred score” value is “no statistically significant difference”. The cell morphology result with CMGT071020 cells [2] is “reduced in cell size, cell shrinkage, rounding, vacuolation, and a loss of cell-to-cell adhesion”. Besides, the cell morphology entry in the test on REM134 cells was “reduced in cell size, cell shrinkage, rounding, vacuolation, and a loss of cell-to-cell adhesion”.
